Test results: patent US8889699B2, “5-fluorouracil derivative” (Delta-Fly Pharma, Inc., priority 2009, dated 2014)

Tests used:
[1] = tested on: Human colon cancer strain (KM12C)
Experimental: (§1) The resulting product was stirred with a stirrer at room temperature for about 10 minutes. […] The proliferated strain was extracted, cut into about 2 to 3 mm square pieces with scissors in physiological saline, and subcutaneously inoculated to the right axillary region of rats of the same strain, 5 to 6 weeks of age, using a transplantation needle. […] Then, drug administration was initiated from the next day. Each of the test liquids shown in (a) to (b) above was administered orally to the rats in each of the test drug groups using a sonde for oral administration at a dose of 0.1 ml per 10 g body weight once a day for 14 continuous days. In the same manner as the above, the cancer-bearing rats in the control group were subjected to oral administration of only 0.5% HPMC liquid for 14 continuous days.
(§2) The tumor volume of each rat in each group before the initiation of the treatment, on day 3, day 5, day 8 (1 week after), day 11, and day 15 (2 weeks after), i.e., after termination of the administration, was calculated using Equation 1 below, and respective relative tumor volume (RTV) relative to the tumor volume at the time of initiation of the treatment was calculated. In relation to the antitumor effect, the average value of the tumor proliferation inhibition ratio (IR; %) was calculated from the average tumor volume of each treatment group on day 15 (after termination of the treatment) relative to that of the control group on day 15, using Equation 2. […] Along therewith, a weight change ratio was calculated from the body weight of the rats at the time of the termination of the drug administration relative to the body weight of the rats at the time of the initiation of the administration, using Equation 3. […] A coagulation inhibitor was added to each of the collected blood samples, and the white blood cell count, red blood cell count, and platelet count were measured using a hemocytometer.

[2] = tested on: human gastric cancer strain (SC-2)
Experimental: as §1, §2

[3] = oral, 14 days, Compound I-11 71 to 88 mg/kg/day, S-1 20 to 22.5 mg/kg/day

| SMILES | antitumor effect ([1]; oral, 14 days, Compound I-10 51 to 77 mg/kg/day, S-1 15 to 22.5 mg/kg/day, FIG. 2-1) | diarrhea ([1]; rat, in vivo) | platelet count relative to that of the control group ([1]; rat, in vivo) | weight loss ([1]; rat, in vivo) | white blood cell count, reduced to % of that of the control group ([2]; 71 to 88 mg/kg/day orally for 2 weeks, FIG. 1-2) | platelet count relative to that of the control group ([2]; oral, 2 weeks, Compound I-11 71 to 88 mg/kg/day, S-1 20 to 22.5 mg/kg/day, FIG. 1-2) | toxic death ([2]; oral, 14 days, Compound I-11 71 to 88 mg/kg/day) | diarrhea [2, 3] | weight loss [2, 3] | antitumor effect ([2]; oral, 14 days, Compound I-11 71 to 88 mg/kg/day, S-1 20 to 22.5 mg/kg/day, FIG. 1-1) |
| --- | --- | --- | --- | --- | --- | --- | --- | --- | --- | --- |
| CCOCn1cc(F)c(=O)n(C(=O)c2cccc(C(=O)Oc3cc(OC(=O)c4cc(OC(C)=O)nc(OC(C)=O)c4)c(Cl)cn3)c2)c1=O [Compound I-10, 3-{3-[4-(2,6-diacetyloxyisonicotinoyloxy)-5-chloro-2-pyridyloxycarbonyl]benzoyl}-1-ethoxymethyl-5-fluorouracil] | high antitumor effects in a dose-dependent manner | not observed | the same as that of the control group | not observed |  |  |  |  |  |  |
| CCOCn1cc(F)c(=O)n(C(=O)c2cccc(C(=O)Oc3cc(OC(=O)c4cc(OC(=O)CC)nc(OC(=O)CC)c4)c(Cl)cn3)c2)c1=O [Compound I-11, 3-{3-[4-(2,6-dipropionyloxyisonicotinoyloxy)-5-chloro-2-pyridyloxycarbonyl]benzoyl}-1-ethoxymethyl-5-fluorouracil] |  |  |  |  | about 50% | almost the same as that of the control group | not observed | not observed | not observed | high antitumor effects in a dose-dependent manner |
